Experimental data reported in ChEMBL document CHEMBL1142788, “Synthesis and antibacterial activity of alkyl derivatives of the glycopeptide antibiotic A40926 and their amides” (2005).
Values after ≈ are worked out from the molar mass of the structure shown.

Columns and labels:
Enterococcus faecium [1] = assay: Minimum inhibitory concentration against vancomycin-A Enterococcus faecium in the presence of 30% bovine serum (n=1) (range = 816 mg/L); format: functional
Enterococcus faecalis [2] = assay: Minimum inhibitory concentration against vancomycin-A Enterococcus faecalis in the presence of 30% bovine serum (n=4) (Range = 0.125 - 16 mg/L); format: functional
[3] = system: Staphylococcus epidermidis; assay: Minimum inhibitory concentration against methicillin-sensitive Staphylococcus epidermidis in the presence of 30% bovine serum; format: functional
Enterococcus faecalis [4] = assay: Minimum inhibitory concentration against vancomycin-sensitive Enterococcus faecalis in the presence of 30% bovine serum (n=3); format: functional
[5] = system: Staphylococcus haemolyticus; assay: Minimum inhibitory concentration against Staphylococcus haemolyticus in the presence of 30% bovine serum; format: functional
Enterococcus faecium [6] = assay: Minimum inhibitory concentration against vancomycin-sensitive Enterococcus faecium in the presence of 30% bovine serum(n=1); format: functional
Staphylococcus aureus [7] = assay: Minimum inhibitory concentration against methicillin-sensitive Staphylococcus aureus
Enterococcus faecalis [8] = assay: Minimum inhibitory concentration against vancomycin-sensitive Enterococcus faecalis in the presence of 30% bovine serum (n=3) (range = 0.125-0.5); format: functional
Enterococcus faecium [9] = assay: Minimum inhibitory concentration against vancomycin-A Enterococcus faecium in the presence of 30% bovine serum (n=1) (range = 0.125-128mg/l); format: functional
[10] = system: Staphylococcus epidermidis; assay: Minimum inhibitory concentration against methicillin-resistant Staphylococcus epidermidis in the presence of 30% bovine serum; format: functional
Staphylococcus aureus [11] = assay: Minimum inhibitory concentration against methicillin-resistant Staphylococcus aureus
Enterococcus faecalis [12] = assay: Minimum inhibitory concentration against vancomycin-A Enterococcus faecalis (n=4) (range = 2-128mg/L)
Enterococcus faecium [13] = assay: Minimum inhibitory concentration against vancomycin-A Enterococcus faecium in the presence of 30% bovine serum (n=1) (range = 2>128mg/l); format: functional
Enterococcus faecalis [14] = assay: Minimum inhibitory concentration against vancomycin-sensitive Enterococcus faecalis in the presence of 30% bovine serum (n=3) (range = 0.5-1mg/l); format: functional
Enterococcus faecalis [15] = assay: Minimum inhibitory concentration against vancomycin-A Enterococcus faecalis in the presence of 30% bovine serum (n=4); format: functional
Enterococcus faecalis [16] = assay: Minimum inhibitory concentration against vancomycin-sensitive Enterococcus faecalis in the presence of 30% bovine serum(n=3)(range = 8-4); format: functional
Enterococcus faecalis [17] = assay: Minimum inhibitory concentration against vancomycin-A Enterococcus faecalis in the presence of 30% bovine serum(n=4) (range = 0.125-16mg/L); format: functional
Enterococcus faecium [18] = assay: Minimum inhibitory concentration against vancomycin-A Enterococcus faecium in the presence of 30% bovine serum (n=1); format: functional
Enterococcus faecalis [19] = assay: Minimum inhibitory concentration against vancomycin-sensitive Enterococcus faecalis in the presence of 30% bovine serum(n=3)(range = 0.125 - 0.16 mg/l); format: functional

| SMILES | MIC (Enterococcus faecium [1]) | MIC (Enterococcus faecalis [2]) | MIC [3] | MIC (Enterococcus faecalis [4]) | MIC [5] | MIC (Enterococcus faecium [6]) | MIC (Staphylococcus aureus [7]) | MIC (Enterococcus faecalis [8]) | MIC (Enterococcus faecium [9]) | MIC [10] | MIC (Staphylococcus aureus [11]) | MIC (Enterococcus faecalis [12]) | MIC (Enterococcus faecium [13]) | MIC (Enterococcus faecalis [14]) | MIC (Enterococcus faecalis [15]) | MIC (Enterococcus faecalis [16]) | MIC (Enterococcus faecalis [17]) | MIC (Enterococcus faecium [18]) | MIC (Enterococcus faecalis [19]) |
| --- | --- | --- | --- | --- | --- | --- | --- | --- | --- | --- | --- | --- | --- | --- | --- | --- | --- | --- | --- |
| CCCCCCOc1ccc(CNC2[C@H](Oc3c4cc5cc3Oc3ccc(cc3Cl)[C@@H](O)C3NC(=O)[C@H](NC(=O)[C@@H]5NC(=O)[C@H]5NC(=O)[C@@H](Cc6ccc(cc6)O4)NC(=O)[C@H](NC)c4ccc(O)c(c4)Oc4cc(O)c(Cl)c5c4)c4ccc(O)c(c4)-c4c(O[C@H]5O[C@H](CO)[C@@H](O)[C@H](O)[C@@H]5O)cc(O)cc4[C@@H](C(=O)NCCCN(C)C)NC3=O)OC(C(=O)NCCCN(C)C)C(O)[C@@H]2O)cc1 (some centres undefined) | > 16 µg/mL | 16 µg/mL | < 0.125 µg/mL | < 0.125 µg/mL | 16 µg/mL | < 0.125 µg/mL | > 0.125 µg/mL |  |  |  |  |  |  |  |  |  |  |  |  |
| CCCCn1cc(CNC2[C@H](Oc3c4cc5cc3Oc3ccc(cc3Cl)[C@@H](O)C3NC(=O)[C@H](NC(=O)[C@@H]5NC(=O)[C@H]5NC(=O)[C@@H](Cc6ccc(cc6)O4)NC(=O)[C@H](N(C)Cc4cn(CCCC)c6ccccc46)c4ccc(O)c(c4)Oc4cc(O)c(Cl)c5c4)c4ccc(O)c(c4)-c4c(O[C@H]5O[C@H](CO)[C@@H](O)[C@H](O)[C@@H]5O)cc(O)cc4[C@@H](C(=O)NCCCN(C)C)NC3=O)OC(C(=O)NCCCN(C)C)C(O)[C@@H]2O)c2ccccc21 (some centres undefined) |  |  | 0.25 µg/mL |  | 0.25 µg/mL | 0.125 µg/mL | 0.5 µg/mL (≈ 0.239 µM) | < 0.5 µg/mL | 128 µg/mL | 2 µg/mL | 2 µg/mL (≈ 0.957 µM) | 128 µg/mL (≈ 61.3 µM) |  |  |  |  |  |  |  |
| CN(Cc1c[nH]c2ccccc12)[C@H]1C(=O)N[C@@H]2Cc3ccc(cc3)Oc3cc4cc(c3O[C@@H]3OC(C(=O)O)C(O)[C@H](O)C3NCc3c[nH]c5ccccc35)Oc3ccc(cc3Cl)[C@@H](O)C3NC(=O)[C@H](NC(=O)[C@@H]4NC(=O)[C@@H](NC2=O)c2cc(cc(O)c2Cl)Oc2cc1ccc2O)c1ccc(O)c(c1)-c1c(O[C@H]2O[C@H](CO)[C@@H](O)[C@H](O)[C@@H]2O)cc(O)cc1[C@@H](C(=O)O)NC3=O (some centres undefined) |  |  | 64 µg/mL |  | > 128 µg/mL | 2 µg/mL | 4 µg/mL (≈ 2.21 µM) |  |  | 128 µg/mL | 2 µg/mL (≈ 1.11 µM) |  | > 128 µg/mL | 1 µg/mL | 32 µg/mL |  |  |  |  |
| CCCCC(CC)Oc1ccc(CNC2[C@H](Oc3c4cc5cc3Oc3ccc(cc3Cl)[C@@H](O)C3NC(=O)[C@H](NC(=O)[C@@H]5NC(=O)[C@H]5NC(=O)[C@@H](Cc6ccc(cc6)O4)NC(=O)[C@H](NC)c4ccc(O)c(c4)Oc4cc(O)c(Cl)c5c4)c4ccc(O)c(c4)-c4c(O[C@H]5O[C@H](CO)[C@@H](O)[C@H](O)[C@@H]5O)cc(O)cc4[C@@H](C(=O)NCCCN(C)C)NC3=O)OC(C(=O)NCCCN(C)C)C(O)[C@@H]2O)cc1 (some centres undefined) |  |  | < 0.125 µg/mL |  | 4 µg/mL | < 0.125 µg/mL | < 0.125 µg/mL |  |  |  |  |  |  |  |  | < 0.125 µg/mL | < 16 µg/mL | 16 µg/mL |  |
| CCCCCCOc1ccc(CNC2[C@H](Oc3c4cc5cc3Oc3ccc(cc3Cl)[C@@H](O)C3NC(=O)[C@H](NC(=O)[C@@H]5NC(=O)[C@H]5NC(=O)[C@@H](Cc6ccc(cc6)O4)NC(=O)[C@H](NC)c4ccc(O)c(c4)Oc4cc(O)c(Cl)c5c4)c4ccc(O)c(c4)-c4c(O[C@H]5O[C@H](CO)[C@@H](O)[C@H](O)[C@@H]5O)cc(O)cc4[C@@H](C(=O)NCCCN(C)C)NC3=O)OC(C(=O)NCCCN(C)C)C(O)[C@@H]2O)cc1OCC (some centres undefined) |  | < 16 µg/mL | < 0.125 µg/mL |  | 2 µg/mL | < 0.125 µg/mL | < 0.125 µg/mL |  |  |  |  |  |  |  |  |  |  | > 16 µg/mL | < 0.125 µg/mL |
